Measurements from patent US11446287B2, “Compounds and methods for EP300 or CBP modulation and indications therefor” (Opna Immuno-Oncology SA, priority 2019, dated 2022).
pIC50: −log10 of the molar value.

molecular target: T1, Recombinant human BRD4 containing dual bromodomains (BRD4-BD12 (1-477)) (Homo sapiens, UniProt O60885); assay: BRD4 Alphascreen binding assay
T1 construct: Recombinant human BRD4 containing dual bromodomains (BRD4-BD12 (1-477)); made in house; host or cells: E. coli BL21-CodonPlus (DE3), modified pET vector
How it was run: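 His-tagged human BRD4 tandem bromodomains (1-477, E. coli) incubated 1 h at room temperature with biotinylated tetra-acetylated H4 (1-21) peptide and compound in HEPES pH 7.5 buffer with 2 mM DTT. AlphaScreen signal read 30 min after adding beads (7.5 μg/ml); IC50 from four-parameter fit after normalization to controls.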

Compound	pIC50
Cc1noc(C)c1-c1cnc2c(c1)c(-c1ccc(C(=O)O)cc1OC(F)(F)F)cn2-c1cnc(C2CC2)nc1 [P-0384, 4-(1-(2-cyclopropylpyrimidin-5-yl)-5-(3,5-dimethylisoxazol-4-yl)-1H-pyrrolo[2,3-b]pyridin-3-yl)-3-(trifluoromethoxy)benzoic acid]	5.10 to 6.00
CCOc1cc(C(=O)O)c(F)cc1-c1cn(-c2ccccc2F)c2ncc(-c3c(C)noc3C)cc12 [P-0377, 4-(5-(3,5-dimethylisoxazol-4-yl)-1-(2-fluorophenyl)-1H-pyrrolo[2,3-b]pyridin-3-yl)-5-ethoxy-2-fluorobenzoic acid]	5.10 to 6.00
Cc1ncccc1-n1cc(-c2ccc(C(=O)O)cc2OC(F)(F)F)c2cc(-c3c(C)noc3C)cnc21 [P-0317, 4-(5-(3,5-dimethylisoxazol-4-yl)-1-(2-methylpyridin-3-yl)-1H-pyrrolo[2,3-b]pyridin-3-yl)-3-(trifluoromethoxy)benzoic acid]	3.00 to 5.10
Cc1noc(C)c1-c1cnc2c(c1)c(-c1ccc(C(=O)O)cc1OC(C)C)c(C)n2C(C1CC1)C1CC1 [P-0342, 4-(1-(dicyclopropylmethyl)-5-(3,5-dimethylisoxazol-4-yl)-2-methyl-1H-pyrrolo[2,3-b]pyridin-3-yl)-3-isopropoxybenzoic acid]	3.00 to 5.10
CCOc1cc(C(=O)O)c(F)c(OCC)c1-c1cn(C2CCOCC2)c2ncc(-c3c(C)noc3C)cc12 [P-0374, 4-(5-(3,5-dimethylisoxazol-4-yl)-1-(tetrahydro-2H-pyran-4-yl)-1H-pyrrolo[2,3-b]pyridin-3-yl)-3,5-diethoxy-2-fluorobenzoic acid]	3.00 to 5.10
COc1cc(C(=O)O)ncc1-c1cn(-c2ccncc2Cl)c2ncc(-c3c(C)noc3C)cc12 [P-0324, 5-(1-(3-chloropyridin-4-yl)-5-(3,5-dimethylisoxazol-4-yl)-1H-pyrrolo[2,3-b]pyridin-3-yl)-4-methoxypicolinic acid]	5.10 to 6.00
Cc1noc(C)c1-c1cnc2c(c1)c(-c1c(F)cc(C(=O)O)cc1OC(C)C)cn2C(C1CC1)C1CC1 [P-0369, 4-(1-(dicyclopropylmethyl)-5-(3,5-dimethylisoxazol-4-yl)-1H-pyrrolo[2,3-b]pyridin-3-yl)-3-fluoro-5-isopropoxybenzoic acid]	5.10 to 6.00
Cc1noc(C)c1-c1cnc2c(c1)c(-c1ccc(C(=O)O)cc1OC(F)(F)F)cn2CC1(C#N)CCC1 [P-0364, 4-(1-((1-cyanocyclobutyl)methyl)-5-(3,5-dimethylisoxazol-4-yl)-1H-pyrrolo[2,3-b]pyridin-3-yl)-3-(trifluoromethoxy)benzoic acid]	5.10 to 6.00
Cc1noc(C)c1-c1cnc2c(c1)c(-c1ccc(C(=O)O)cc1OC1CCC1)cn2-c1cnn(C(F)F)c1C [P-0353, 3-cyclobutoxy-4-(1-(1-(difluoromethyl)-5-methyl-1H-pyrazol-4-yl)-5-(3,5-dimethylisoxazol-4-yl)-1H-pyrrolo[2,3-b]pyridin-3-yl)benzoic acid]	3.00 to 5.10
Cc1nn(CC(=O)N(C)C)cc1-n1cc(-c2ccc(C(=O)O)cc2OC(F)(F)F)c2cc(-c3c(C)noc3C)cnc21 [P-0366, 4-(1-(1-(2-(dimethylamino)-2-oxoethyl)-3-methyl-1H-pyrazol-4-yl)-5-(3,5-dimethylisoxazol-4-yl)-1H-pyrrolo[2,3-b]pyridin-3-yl)-3-(trifluoromethoxy)benzoic acid]	3.00 to 5.10
Cc1noc(C)c1-c1cnc2c(c1)c(-c1ccc(C(=O)O)cc1OC(F)(F)F)cn2C1CCCC1 [P-0382, 4-(1-cyclopentyl-5-(3,5-dimethylisoxazol-4-yl)-1H-pyrrolo[2,3-b]pyridin-3-yl)-3-(trifluoromethoxy)benzoic acid]	5.10 to 6.00
Cc1noc(C)c1-c1cnc2c(c1)c(-c1ccc(C(=O)O)cc1OC(F)(F)F)cn2-c1ccc(C(=O)O)cc1 [P-0322, 4-(1-(4-carboxyphenyl)-5-(3,5-dimethylisoxazol-4-yl)-1H-pyrrolo[2,3-b]pyridin-3-yl)-3-(trifluoromethoxy)benzoic acid]	5.10 to 6.00
CCOc1cc(C(=O)O)cc(Cl)c1-c1cn(C(C2CC2)C2CC2)c2ncc(-c3c(C)noc3C)cc12 [P-0370, 3-chloro-4-(1-(dicyclopropylmethyl)-5-(3,5-dimethylisoxazol-4-yl)-1H-pyrrolo[2,3-b]pyridin-3-yl)-5-ethoxybenzoic acid]	5.10 to 6.00
Cc1noc(C)c1-c1cnc2c(c1)c(-c1c(F)cc(C(=O)O)cc1OCC(F)F)cn2-c1ccccc1 [P-0327, 3-(2,2-difluoroethoxy)-4-(5-(3,5-dimethylisoxazol-4-yl)-1-phenyl-1H-pyrrolo[2,3-b]pyridin-3-yl)-5-fluorobenzoic acid]	5.10 to 6.00
Cc1noc(C)c1-c1cnc2c(c1)c(-c1ccc(C(=O)O)cc1OC(C)C)cn2-c1cnn(C(F)F)c1C [P-0354, 4-(1-(1-(difluoromethyl)-5-methyl-1H-pyrazol-4-yl)-5-(3,5-dimethylisoxazol-4-yl)-1H-pyrrolo[2,3-b]pyridin-3-yl)-3-isopropoxybenzoic acid]	3.00 to 5.10
Cc1noc(C)c1-c1cnc2c(c1)c(-c1c(Cl)cc(C(=O)O)cc1OC(F)(F)F)cn2-c1cnc(C2CC2)nc1 [P-0386, 3-chloro-4-(1-(2-cyclopropylpyrimidin-5-yl)-5-(3,5-dimethylisoxazol-4-yl)-1H-pyrrolo[2,3-b]pyridin-3-yl)-5-(trifluoromethoxy)benzoic acid]	5.10 to 6.00
Cc1noc(C)c1-c1cnc2c(c1)c(-c1ccc(C(=O)O)cc1OC(F)(F)F)cn2-c1ccc(C(N)=O)cc1 [P-0323, 4-(1-(4-carbamoylphenyl)-5-(3,5-dimethylisoxazol-4-yl)-1H-pyrrolo[2,3-b]pyridin-3-yl)-3-(trifluoromethoxy)benzoic acid]	5.10 to 6.00
Cc1nn(CC(C)(C)O)cc1-n1cc(-c2ccc(C(=O)O)cc2OC(F)(F)F)c2cc(-c3c(C)noc3C)cnc21 [P-0365, 4-(5-(3,5-dimethylisoxazol-4-yl)-1-(1-(2-hydroxy-2-methylpropyl)-3-methyl-1H-pyrazol-4-yl)-1H-pyrrolo[2,3-b]pyridin-3-yl)-3-(trifluoromethoxy)benzoic acid]	5.10 to 6.00
Cc1noc(C)c1-c1cnc2c(c1)c(-c1ccc(C(=O)O)cc1OC(C)C)cn2C1CCOCC1 [P-0357, 4-(5-(3,5-dimethylisoxazol-4-yl)-1-(tetrahydro-2H-pyran-4-yl)-1H-pyrrolo[2,3-b]pyridin-3-yl)-3-isopropoxybenzoic acid]	3.00 to 5.10
CCOc1cc(C(=O)O)cc(Cl)c1-c1cn(C2CCOCC2)c2ncc(-c3c(C)noc3C)cc12 [P-0371, 3-chloro-4-(5-(3,5-dimethylisoxazol-4-yl)-1-(tetrahydro-2H-pyran-4-yl)-1H-pyrrolo[2,3-b]pyridin-3-yl)-5-ethoxybenzoic acid]	5.10 to 6.00
Cc1noc(C)c1-c1cnc2c(c1)c(-c1c(Cl)cc(C(=O)O)cc1OC(F)(F)F)cn2C1CCOCC1 [P-0355, 3-chloro-4-(5-(3,5-dimethylisoxazol-4-yl)-1-(tetrahydro-2H-pyran-4-yl)-1H-pyrrolo[2,3-b]pyridin-3-yl)-5-(trifluoromethoxy)benzoic acid]	5.10 to 6.00
Cc1noc(C)c1-c1cnc2c(c1)c(-c1ccc(C(=O)O)c(C(F)(F)F)c1)cn2C(c1ccccn1)C1CCCC1 (centres unmarked) [P-0029, 4-(1-(cyclopentyl(pyridin-2-yl)methyl)-5-(3,5-dimethylisoxazol-4-yl)-1H-pyrrolo[2,3-b]pyridin-3-yl)-2-(trifluoromethyl)benzoic acid]	5.10 to 6.00
Cc1noc(C)c1-c1cnc2c(c1)c(-c1ccc(C(=O)O)cc1OC(F)(F)F)cn2-c1cncnc1 [P-0319, 4-(5-(3,5-dimethylisoxazol-4-yl)-1-(pyrimidin-5-yl)-1H-pyrrolo[2,3-b]pyridin-3-yl)-3-(trifluoromethoxy)benzoic acid]	5.10 to 6.00
Cc1noc(C)c1-c1cnc2c(c1)c(-c1ccc(C(C)(C)C(=O)O)cc1)cn2C(c1ccccn1)C1CCCC1 (centres unmarked) [P-0032, 2-(4-(1-(cyclopentyl(pyridin-2-yl)methyl)-5-(3,5-dimethylisoxazol-4-yl)-1H-pyrrolo[2,3-b]pyridin-3-yl)phenyl)-2-methylpropanoic acid]	5.10 to 6.00
Cc1noc(C)c1-c1cnc2c(c1)c(-c1ccc(C(F)(F)C(=O)O)cc1)cn2C(c1ccccn1)C1CCCC1 (centres unmarked) [P-0034, 2-(4-(1-(cyclopentyl(pyridin-2-yl)methyl)-5-(3,5-dimethylisoxazol-4-yl)-1H-pyrrolo[2,3-b]pyridin-3-yl)phenyl)-2,2-difluoroacetic acid]	5.10 to 6.00
Cc1noc(C)c1-c1cnc2c(c1)c(-c1ccc(C(=O)O)cc1OC1CCC1)cn2[C@H]1CCOC1 [P-0350, (S)-3-cyclobutoxy-4-(5-(3,5-dimethylisoxazol-4-yl)-1-(tetrahydrofuran-3-yl)-1H-pyrrolo[2,3-b]pyridin-3-yl)benzoic acid]	3.00 to 5.10
Cc1noc(C)c1-c1cnc2c(c1)c(-c1ccc(CC(=O)O)cc1)cn2C(c1ccccn1)C1CCCC1 (centres unmarked) [P-0031, 2-(4-(1-(cyclopentyl(pyridin-2-yl)methyl)-5-(3,5-dimethylisoxazol-4-yl)-1H-pyrrolo[2,3-b]pyridin-3-yl)phenyl)acetic acid]	5.10 to 6.00
COc1ncccc1-n1cc(-c2ccc(C(=O)O)cc2OC(F)(F)F)c2cc(-c3c(C)noc3C)cnc21 [P-0316, 4-(5-(3,5-dimethylisoxazol-4-yl)-1-(2-methoxypyridin-3-yl)-1H-pyrrolo[2,3-b]pyridin-3-yl)-3-(trifluoromethoxy)benzoic acid]	5.10 to 6.00
Cc1noc(C)c1-c1cnc2c(c1)c(-c1ccc(C(=O)O)cc1OC(F)(F)F)c(C)n2C(C1CC1)C1CC1 [P-0343, 4-(1-(dicyclopropylmethyl)-5-(3,5-dimethylisoxazol-4-yl)-2-methyl-1H-pyrrolo[2,3-b]pyridin-3-yl)-3-(trifluoromethoxy)benzoic acid]	3.00 to 5.10
